US8993565B2, “(6-oxo-1,6-dihydropyrimidin-2-yl)amide derivatives, preparation thereof and pharmaceutical use thereof as AKT(PKB) phosphorylation inhibitors” (Sanofi, priority 2009, dated 2015)

tested on: AKT protein phosphorylated on serine 473 (P-AKT-S473); test: Study of pAKT expression in PC3 human prostate carcinoma cells measured by the MSD Multi-spot Biomarker Detection technique (Test B); format: cell-based; conditions: PC-3, inhibition of AKT phosphorylation (P-AKT-S473), MSD sandwich immunoassay, 1 to 2 h incubation, absolute IC50, mean of 2 experiments
Protocol: The inhibitory activity of the molecules on AKT phosphorylation is measured either by western blotting using the technique described below, or by the MSD Multi-spot Biomarker detection technique from Meso Scale Discovery also described below.
Study of pAKT Expression in PC3 Human Prostate Carcinoma Cells Measured by the MSD Multi-Spot Biomarker Detection Technique from Meso Scale Discovery (Test B):
The primary antibody specific for P-AKT-S473 (Kit #K151CAD) is coated on to an electrode in each well of the 96-well plates of the MSD, kit: after the addition of a protein lysate to each well, the signal is visualised by adding a secondary detection antibody labelled with an electrochemoluminescent compound. The procedure followed is that described in the kit.
On day 2, the cells are incubated in the presence or absence of the test products for 1 to 2 h at 37° C. in the presence of 5% of CO2. The molecules, diluted in dimethyl sulphoxide (DMSO Sigma #D2650), are added from a 20-times concentrated stock solution, the final percentage of DMSO being 0.1%. The molecules are tested either at a single concentration of less than or equal to 10 μM, or at increasing concentrations in a range that can extend from less than 1 nM to 10 μM.
After this incubation, the cells are lysed for the preparation of the proteins. […] At this stage, the plates containing the lysates can be stored at −20° C. or at −80° C.
The wells of the 96-well plates of the MSD kit are saturated for 1 h at ambient temperature with the blocking solution of the MSD kit. Four washes are carried out with 150 μl of Tris Wash Buffer of the MSD kit. The lysates previously prepared are transferred into the 96-well multi-spot plates of the MSD kit and incubated for 1 h at ambient temperature, with shaking. Four washes are carried out with 150 μl of Tris Wash Buffer of the MSD kit. 25 μl of the MSD sulfo-tag detection antibody solution are added to the wells and incubated for 1 h at ambient temperature, with shaking. Four washes are carried out with 150 μl of Tris Wash Buffer of the MSD kit. 150 μl of Read Buffer of the MSD kit are added to the wells and the plates are read immediately on the S12400 instrument from Meso Scale Discovery.
The instrument measures a signal for each well. Wells without cells and containing the lysis buffer serve to determine the background noise that will be subtracted from all the measurements (min). The wells containing cells in the absence of product and in the presence of 0.1% DMSO are considered to be the 100% signal (max). The percentage inhibition is calculated for each concentration of test product according to the following formula: (1-((test-min)(max-min)))×100.
2 independent experiments make it possible to calculate the mean of the IC50 values.

Q: For `Cn1ccc2c(NC(=O)Cc3nc(N4CCOCC4)cc(=O)[nH]3)cccc21` [Example 99, N-(1-methyl-1H-indol-4-yl)-2-[4-(morpholin-4-yl)-6-oxo-1,6-dihydropyrimidin-2-yl]acetamide], which IC50 is on record?
A: Its IC50 is 666 nM.

Q: `N#Cc1cccc(NC(=O)Cc2nc(N3CCOCC3)cc(=O)[nH]2)c1O` [Example 152, N-(3-cyano-2-hydroxyphenyl)-2-[4-(morpholin-4-yl)-6-oxo-1,6-dihydropyrimidin-2-yl]acetamide] was tested. Which IC50 did it give?
A: The IC50 was 938 nM.

Q: How did the IC50 turn out when `O=C(Cc1nc(N2CCOCC2)cc(=O)[nH]1)N1CCc2c1ccc(F)c2F` [Example 94, 2-[2-(4,5-difluoro-2,3-dihydro-1H-indol-1-yl)-2-oxoethyl]-6-(morpholin-4-yl)pyrimidin-4(3H)-one] was run?
A: Its IC50 is 11 nM.

Q: Which IC50 does the source give for `COc1cc(NC(=O)Cc2nc(N3CCOCC3)cc(=O)n2C)ccc1F` [Example 83, N-(4-fluoro-3-methoxyphenyl)-2-[1-methyl-4-(morpholin-4-yl)-6-oxo-1,6-dihydropyrimidin-2-yl]acetamide] here?
A: The IC50 was 115 nM.

Q: With `O=C(Cc1nc(N2CCOCC2)cc(=O)[nH]1)Nc1ccc(F)c(C(F)F)c1` [Example 76] as the molecule, how does the IC50 read?
A: The IC50 was 77 nM.

Q: Which IC50 does the source give for `O=C(Cc1nc(N2CCOCC2)cc(=O)[nH]1)Nc1ccccc1OCCN1CCCCC1` [Example 107, 2-[4-(morpholin-4-yl)-6-oxo-1,6-dihydropyrimidin-2-yl]-N-{2-[2-(piperidin-1-yl)ethoxy]phenyl}acetamide] here?
A: Its IC50 is 24 nM.

Q: How did the IC50 turn out when `Cn1c(CC(=O)Nc2ccc(F)c(F)c2)nc(N2CCOCC2)cc1=O` [Example 78, N-(3,4-difluorophenyl)-2-[1-methyl-4-(morpholin-4-yl)-6-oxo-1,6-dihydropyrimidin-2-yl]acetamide] was run?
A: The IC50 was 129 nM.

Q: Which IC50 does the source give for `C[C@@H]1CN(C(=O)Cc2nc(N3CCOCC3)cc(=O)[nH]2)c2ccccc21` [Example 125, 2-{2-[(3S)-3-methyl-2,3-dihydro-1H-indol-1-yl]-2-oxoethyl}-6-(morpholin-4-yl)pyrimidin-4(3 H)-one] here?
A: The IC50 was 16 nM.

Q: Which IC50 does the source give for `O=C(Cc1nc(N2CCOCC2)cc(=O)[nH]1)N1CCc2cc(F)c(F)cc21` [Example 147, 2-[2-(5,6-Difluoro-2,3-dihydroindol-1-yl)-2-oxoethyl]-6-morpholin-4-yl-3H-pyrimidin-4-one] here?
A: The IC50 was 4 nM.

Q: With `O=C(Cc1nc(N2CCOCC2)cc(=O)[nH]1)Nc1ccc(F)c(C(=O)O)c1` [Example 64, 2-fluoro-5-(([4-(morpholin-4-yl)-6-oxo-1,6-dihydropyrimidin-2-yl]acetyl)amino)benzoic acid] as the molecule, how does the IC50 read?
A: Its IC50 is 10000 nM.

Q: `CC1(C)CN(C(=O)Cc2nc(N3CCOCC3)cc(=O)[nH]2)c2ccccc21` [Example 154, 2-[2-(3,3-dimethyl-2,3-dihydro-1H-indol-1-yl)-2-oxoethyl]-6-(morpholin-4-yl)pyrimidin-4(3H)-one] was tested. Which IC50 did it give?
A: Its IC50 is 28 nM.

Q: `CN(C)c1cccc(NC(=O)Cc2nc(N3CCOCC3)cc(=O)[nH]2)c1` [Example 4, N-[3-(dimethylamino)phenyl]-2-[4-(morpholin-4-yl)-6-oxo-1,6-dihydropyrimidin-2-yl]acetamide] was tested. Which IC50 did it give?
A: Its IC50 is 145 nM.

Q: Which IC50 does the source give for `C#Cc1cc(NC(=O)Cc2nc(N3CCOCC3)cc(=O)[nH]2)ccc1F` [Example 90, N-(3-ethynyl-4-fluorophenyl)-2-[4-(morpholin-4-yl)-6-oxo-1,6-dihydropyrimidin-2-yl]acetamide] here?
A: The IC50 was 14 nM.

Q: With `O=C(Cc1nc(N2CCOCC2)cc(=O)[nH]1)Nc1ccc(F)cc1OCC1CCNCC1` [Example 133, N-[4-fluoro-2-(piperidin-4-ylmethoxy)phenyl]-2-[4-(morpholin-4-yl)-6-oxo-1,6-dihydropyrimidin-2-yl]acetamide] as the molecule, how does the IC50 read?
A: Its IC50 is 174 nM.

Q: Which IC50 does the source give for `O=C(Cc1nc(N2CCOCC2)cc(=O)[nH]1)N1Cc2ccccc2C1` [Example 129, 2-[2-(1,3-dihydro-2H-isoindol-2-yl)-2-oxoethyl]-6-(morpholin-4-yl)pyrimidin-4(3H)-one] here?
A: The IC50 was 1000 nM.

Q: `O=C(Nc1ccc(F)cc1)C(F)(F)c1nc(N2CCOCC2)cc(=O)[nH]1` [Example 77, 2,2-difluoro-N-(4-fluorophenyl)-2-[4-(morpholin-4-yl)-6-oxo-1,6-dihydropyrimidin-2-yl]acetamide] was tested. Which IC50 did it give?
A: Its IC50 is 698 nM.

Q: For `Cn1c(CC(=O)N2CCc3ccccc32)nc(N2CCOCC2)cc1=O` [Example 79, 2-[2-(2,3-dihydro-1 H-indol-1-yl)-2-oxoethyl]-3-methyl-6-(morpholin-4-yl)pyrimidin-4(3 H)-one], which IC50 is on record?
A: Its IC50 is 20 nM.

Q: `O=C(Cc1nc(N2CCOCC2)cc(=O)[nH]1)N1CCc2ncccc21` [Example 146, 2-[2-(2,3-dihydro-1H-pyrrolo[3,2-b]pyridin-1-yl)-2-oxoethyl]-6-(morpholin-4-yl)pyrimidin-4(3H)-one] was tested. Which IC50 did it give?
A: Its IC50 is 180 nM.

Q: How did the IC50 turn out when `C[C@@H]1Cc2ccccc2N1C(=O)Cc1nc(N2CCOCC2)cc(=O)[nH]1` [Example 118, 2-{2-[(2R)-2-methyl-2,3-dihydro-1H-indol-1-yl]-2-oxoethyl}-6-(morpholin-4-yl)pyrimidin-4(3H)-one] was run?
A: The IC50 was 12 nM.

Q: With `COCCOc1ccccc1NC(=O)Cc1nc(N2CCOCC2)cc(=O)[nH]1` [Example 108, N-[2-(2-methoxyethoxy)phenyl]-2-[4-(morpholin-4-yl)-6-oxo-1,6-dihydropyrimidin-2-yl]acetamide] as the molecule, how does the IC50 read?
A: The IC50 was 56 nM.

Q: `O=C(Cc1nc(N2CCOCC2)cc(=O)[nH]1)Nc1ccc(F)c(F)c1F` [Example 53, 2-[4-(morpholin-4-yl)-6-oxo-1,6-dihydropyrimidin-2-yl]-N-(2,3,4-trifluorophenyl)acetamide] was tested. Which IC50 did it give?
A: Its IC50 is 66 nM.

Q: `O=C(Cc1nc(N2CCOCC2)cc(=O)[nH]1)N1CCc2cc(F)ccc21` [Example 103, 2-[2-(5-Fluoro-2,3-dihydroindol-1-yl)-2-oxoethyl]-6-morpholin-4-yl-3H-pyrimidin-4-one] was tested. Which IC50 did it give?
A: The IC50 was 7 nM.

Q: With `O=C(Cc1nc(N2CCOCC2)cc(=O)[nH]1)N1CCc2cc(Cl)ccc21` [Example 134, 2-[2-(5-Chloro-2,3-dihydroindol-1-yl)-2-oxoethyl]-6-morpholin-4-yl-3H-pyrimidin-4-one] as the molecule, how does the IC50 read?
A: Its IC50 is 124 nM.

Q: For `O=C(Cc1nc(N2CCOCC2)cc(=O)[nH]1)Nc1ccccc1OCc1cccnc1` [Example 113, 2-[4-(morpholin-4-yl)-6-oxo-1,6-dihydropyrimidin-2-yl]-N-[2-(pyridin-3-ylmethoxy)phenyl]acetamide], which IC50 is on record?
A: Its IC50 is 664 nM.

Q: How did the IC50 turn out when `CC(C)(C)c1cccc(NC(=O)Cc2nc(N3CCOCC3)cc(=O)[nH]2)c1` [Example 19, N-[3-(2-methylpropan-2-yl)phenyl]-2-[4-(morpholin-4-yl)-6-oxo-1,6-dihydropyrimidin-2-yl]acetamide] was run?
A: The IC50 was 42 nM.

Q: With `CN(C)C[C@@H]1CN(C(=O)Cc2nc(N3CCOCC3)cc(=O)[nH]2)c2ccccc21` [Example 137, 2-(2-{(3R)-3-[(dimethylamino)methyl]-2,3-dihydro-1H-indol-1-yl}-2-oxoethyl)-6-(morpholin-4-yl)pyrimidin-4(3H)-one] as the molecule, how does the IC50 read?
A: The IC50 was 68 nM.

Q: With `O=C(Cc1nc(N2CCOCC2)cc(=O)[nH]1)N1CCc2ccc(F)cc21` [Example 95, 2-[2-(6-fluoro-2,3-dihydro-′1H-indol-1-yl)-2-oxoethyl]-6-(morpholin-4-yl)pyrimidin-4(3H)-one] as the molecule, how does the IC50 read?
A: The IC50 was 35 nM.

Q: `O=C(Cc1nc(N2CCOCC2)cc(=O)[nH]1)Nc1ccc(F)cc1F` [Example 5, N-(2,4-difluorophenyl)-2-[4-(morpholin-4-yl)-6-oxo-1,6-dihydropyrimidin-2-yl]acetamide] was tested. Which IC50 did it give?
A: The IC50 was 51 nM.

Q: For `O=C(Cc1nc(N2CCOCC2)cc(=O)[nH]1)Nc1cccc(OC2CCCC2)c1` [Example 49, N-[3-(cyclopentyloxy)phenyl]-2-[4-(morpholin-4-yl)-6-oxo-1,6-dihydropyrimidin-2-yl]acetamide], which IC50 is on record?
A: Its IC50 is 146 nM.

Q: `Cc1cccc(NC(=O)Cc2nc(N3CCOCC3)cc(=O)[nH]2)c1O` [Example 150, N-(2-hydroxy-3-methylphenyl)-2-[4-(morpholin-4-yl)-6-oxo-1,6-dihydropyrimidin-2-yl]acetamide] was tested. Which IC50 did it give?
A: The IC50 was 189 nM.

Q: How did the IC50 turn out when `COC(=O)c1cc(F)ccc1NC(=O)Cc1nc(N2CCOCC2)cc(=O)[nH]1` [Example 144, Methyl 5-fluoro-2-({[4-(morpholin-4-yl)-6-oxo-1,6-dihydropyrimidin-2-yl]acetyl}amino)benzoate] was run?
A: The IC50 was 432 nM.

Q: With `O=C(Cc1nc(N2CCOCC2)cc(=O)[nH]1)Nc1cccc(Br)c1O` [Example 142, N-(3-bromo-2-hydroxyphenyl)-2-[4-(morpholin-4-yl)-6-oxo-1,6-dihydropyrimidin-2-yl]acetamide] as the molecule, how does the IC50 read?
A: Its IC50 is 22 nM.
